Measurements reported in patent US10329289B2, “6,7-dihydro-5H-pyrrolo[3,4-B]pyridin-5-one allosteric modulators of the M4 muscarinic acetylcholine receptor” (Merck Sharp & Dohme Corp., priority 2015, dated 2019).

biological target: T1, human M4 muscarinic acetylcholine receptor (Homo sapiens, UniProt P08173); test: human FLIPR-based M4 PAM assay (Ca2+ mobilization, CHO-K1 cells with human M4 receptor and Gαqi5); assay type: cell-based; conditions: acetylcholine at 20% of maximum response, read-out: M4 PAM IP
T1 construct: expressed in transfected cells; host or cells: CHO-K1
T1 sequence (P08173 1-479): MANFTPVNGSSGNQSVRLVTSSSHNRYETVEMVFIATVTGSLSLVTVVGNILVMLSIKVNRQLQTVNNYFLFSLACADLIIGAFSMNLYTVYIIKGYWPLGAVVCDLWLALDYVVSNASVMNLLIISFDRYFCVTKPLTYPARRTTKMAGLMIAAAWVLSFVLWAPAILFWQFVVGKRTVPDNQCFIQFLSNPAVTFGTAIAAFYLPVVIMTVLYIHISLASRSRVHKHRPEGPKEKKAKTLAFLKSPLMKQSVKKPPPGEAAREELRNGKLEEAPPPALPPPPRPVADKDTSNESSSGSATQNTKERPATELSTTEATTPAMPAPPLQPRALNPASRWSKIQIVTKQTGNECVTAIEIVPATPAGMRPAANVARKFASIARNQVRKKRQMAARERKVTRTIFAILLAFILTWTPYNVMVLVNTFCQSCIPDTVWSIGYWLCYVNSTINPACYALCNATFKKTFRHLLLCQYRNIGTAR
How it was run: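 CHO-K1 cells stably expressing human M4 and chimeric Gαqi5 were dye-loaded ~1 h at 37 °C and read for Ca2+ fluorescence. Compound followed by acetylcholine at an EC20 (sometimes an EC70 third addition); inflection point from a 4-parameter logistic fit.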

Question: Which EC50 does the source give for Cc1c(N2CCC(OC[C@@]3(C)CC3(F)F)CC2)nc2c(c1C)C(=O)N(CCO)C2 [Example 265B, (R)-2-(4-((2,2-difluoro-1-methylcyclopropyl)methoxy)piperidin-1-yl)-6-(2-hydroxyethyl)-3,4-dimethyl-6,7-dihydro-5H-pyrrolo[3,4-b]pyridin-5-one] here?
Answer: 0.123 µM

Question: How did the EC50 turn out when Cc1cc2c(nc1N1CCC(Oc3ccc4c(c3)CN(C)C4)CC1)CNC2=O [Example 290, 3-Methyl-2-(4-((2-methylisoindolin-5-yl)oxy)piperidin-1-yl)-6,7-dihydro-5H-pyrrolo[3,4-b]pyridin-5-one] was run?
Answer: 0.353 µM

Question: With CCc1cc2c(nc1N1CCC(Oc3ccc4c(c3)COC4)CC1)[C@H](CO)N(C)C2=O [Example 352, can-2-(4-((1,3-dihydro-2-benzofuran-5-yl)oxy)piperidin-1-yl)-3-ethyl-7-(hydroxymethyl)-6-methyl-6,7-dihydro-5H-pyrrolo[3,4-b]pyridin-5-one] as the compound, how does the EC50 read?
Answer: 2.1 µM

Question: CO[C@H]1Cc2ccc(OC3CCN(c4nc5c(cc4C)C(=O)NC5)CC3)cc2C1 [Example 162B, (S)-2-(4-((2-methoxy-2,3-dihydro-1H-inden-5-yl)oxy)piperidin-1-yl)-3-methyl-6,7-dihydro-5H-pyrrolo[3,4-b]pyridin-5-one] was tested. Which EC50 did it give?
Answer: 0.047 µM

Question: With Cc1ccc(OC2CCN(c3nc4c(cc3C)C(=O)NC4)CC2)cc1Cl [Example 82, 2-(4-(3-chloro-4-methylphenoxy)piperidin-1-yl)-3-methyl-6,7-dihydro-5H-pyrrolo[3,4-b]pyridin-5-one] as the compound, how does the EC50 read?
Answer: 0.121 µM

Question: For CCc1cc2c(nc1N1CCC(Oc3ccc4c(cnn4C)c3)CC1)[C@@H](CO)N(C)C2=O [Example 363, (S)-3-ethyl-7-(hydroxymethyl)-6-methyl-2-(4-((1-methyl-1H-indazol-5-yl)oxy)piperidin-1-yl)-6,7-dihydro-5H-pyrrolo[3,4-b]pyridin-5-one], which EC50 is on record?
Answer: 0.1 µM

Question: With CCc1cc2c(nc1N1CCC(Oc3ccc4c(c3)C[C@H](O)C4)CC1)CNC2=O [Example 166A, (R)-3-ethyl-2-(4-((2-hydroxy-2,3-dihydro-1H-inden-5-yl)oxy)piperidin-1-yl)-6,7-dihydro-5H-pyrrolo[3,4-b]pyridin-5-one] as the compound, how does the EC50 read?
Answer: 0.061 µM

Question: For Cc1cc2c(nc1N1CCC(Oc3ccon3)CC1)CNC2=O [Example 86, 2-(4-(isoxazol-3-yloxy)piperidin-1-yl)-3-methyl-6,7-dihydro-5H-pyrrolo[3,4-b]pyridin-5-one], which EC50 is on record?
Answer: 5.69 µM

Question: How did the EC50 turn out when Cc1cc2c(nc1N1CCC(Oc3ccn4ccnc4c3)CC1)CNC2=O [Example 140, 2-(4-(imidazo[1,2-a]pyridin-7-yloxy)piperidin-1-yl)-3-methyl-6,7-dihydro-5H-pyrrolo[3,4-b]pyridin-5-one] was run?
Answer: 4.71 µM

Question: Which EC50 does the source give for Cc1cc2c(nc1N1CCC(Oc3ccc4c(c3)CC(=O)C4)CC1)CNC2=O [Example 373, 3-Methyl-2-(4-((2-oxo-2,3-dihydro-1H-inden-5-yl)oxy)piperidin-1-yl)-6,7-dihydro-5H-pyrrolo[3,4-b]pyridin-5-one] here?
Answer: 0.069 µM

Question: Which EC50 does the source give for Cc1ccc(OC2CCN(c3nc4c(cc3C)C(=O)NC4)CC2)cc1F [Example 134, 2-(4-(3-fluoro-4-methylphenoxy)piperidin-1-yl)-3-methyl-6,7-dihydro-5H-pyrrolo[3,4-b]pyridin-5-one] here?
Answer: 0.167 µM

Question: With Cc1cc2c(nc1N1CC[C@@H](Oc3ccc4c(c3)C(=O)N(C)C4)[C@@H](F)C1)CNC2=O [Example 163, 2-((3S,4R)-3-fluoro-4-((2-methyl-3-oxoisoindolin-5-yl)oxy)piperidin-1-yl)-3-methyl-6,7-dihydro-5H-pyrrolo[3,4-b]pyridin-5-one] as the compound, how does the EC50 read?
Answer: 0.277 µM

Question: Which EC50 does the source give for Cc1cc2c(nc1N1CCC(Oc3ccc(OCCN(C)C)nc3)CC1)CNC2=O [Example 168, 2-(4-((6-(2-(dimethylamino)ethoxy)pyridin-3-yl)oxy)piperidin-1-yl)-3-methyl-6,7-dihydro-5H-pyrrolo[3,4-b]pyridin-5-one] here?
Answer: 0.119 µM

Question: How did the EC50 turn out when Cc1cc2c(nc1N1CCC(Oc3ccc(CO)nc3)CC1)CNC2=O [Example 155, 2-(4-((6-(hydroxymethyl)pyridin-3-yl)oxy)piperidin-1-yl)-3-methyl-6,7-dihydro-5H-pyrrolo[3,4-b]pyridin-5-one] was run?
Answer: 0.117 µM

Question: For Cc1cc2c(nc1N1CC[C@@H](Oc3ccc4c(cnn4C)c3)[C@H](F)C1)CNC2=O [Example 25, 2-((3R,4R)-3-fluoro-4-((1-methyl-1H-indazol-5-yl)oxy)piperidin-1-yl)-3-methyl-6,7-dihydro-5H-pyrrolo[3,4-b]pyridin-5-one], which EC50 is on record?
Answer: 0.075 µM

Question: For Cc1c(N2CC[C@@H](Oc3ccc4c(c3)COC4)[C@@H](F)C2)nc2c(c1C)C(=O)N(CCO)C2 [Example 261, 2-((3S,4R)-4-((1,3-dihydro-2-benzofuran-5-yl)oxy)-3-fluoropiperidin-1-yl)-6-(2-hydroxyethyl)-3,4-dimethyl-6,7-dihydro-5H-pyrrolo[3,4-b]pyridin-5-one], which EC50 is on record?
Answer: 0.039 µM

Question: With Cc1cc2c(nc1N1CCC(Oc3ccc4c(ccn4C)c3)CC1)CNC2=O [Example 27, 3-methyl-2-(4-((1-methyl-1H-indol-5-yl)oxy)piperidin-1-yl)-6,7-dihydro-5H-pyrrolo[3,4-b]pyridin-5-one] as the compound, how does the EC50 read?
Answer: 0.043 µM

Question: For COc1ccc(OC2CCN(c3nc4c(cc3C)C(=O)N([C@H](C)CO)C4)CC2)cn1 (single isomer, unassigned) [Example 264B], which EC50 is on record?
Answer: 0.108 µM

Question: With CCN1C(=O)c2c(nc(N3CCC(Oc4ccc5c(c4)COC5)CC3)c(C)c2C)[C@H]1CO [Example 351A, (S)-2-(4-((1,3-dihydroisobenzofuran-5-yl)oxy)piperidin-1-yl)-6-ethyl-7-(hydroxymethyl)-3,4-dimethyl-6,7-dihydro-5H-pyrrolo[3,4-b]pyridin-5-one] as the compound, how does the EC50 read?
Answer: 0.019 µM

Question: With Cc1cc2c(nc1N1CCC(Oc3ccc4[nH]ncc4c3)CC1)C(C)N(C)C2=O (stereo not shown) [Example 14, 2-(4-((1H-indazol-5-yl)oxy)piperidin-1-yl)-3,6,7-trimethyl-6,7-dihydro-5H-pyrrolo[3,4-b]pyridin-5-one] as the compound, how does the EC50 read?
Answer: 0.052 µM

Question: How did the EC50 turn out when Cc1ccccc1OC1CCN(c2nc3c(cc2C)C(=O)NC3)CC1 [Example 79, 3-methyl-2-(4-(o-tolyloxy)piperidin-1-yl)-6,7-dihydro-5H-pyrrolo[3,4-b]pyridin-5-one] was run?
Answer: 2.28 µM

Question: With COc1ccc(OC2CCN(c3nc4c(cc3CO)C(=O)NC4)CC2)cn1 [Example 301, 3-(Hydroxymethyl)-2-(4-((6-methoxypyridin-3-yl)oxy)piperidin-1-yl)-6,7-dihydro-5H-pyrrolo[3,4-b]pyridin-5-one] as the compound, how does the EC50 read?
Answer: 1.14 µM

Question: Cc1cc2c(nc1N1CCC(Oc3ccc4[nH]ncc4c3)CC1)CN(C)C2=O [Example 12, 2-(4-((1H-indazol-5-yl)oxy)piperidin-1-yl)-3,6-dimethyl-6,7-dihydro-5H-pyrrolo[3,4-b]pyridin-5-one] was tested. Which EC50 did it give?
Answer: 0.016 µM

Question: With CCc1cc2c(nc1N1CCC(Oc3ccc4c(c3)OCC4)CC1)[C@@H](CO)N(C)C2=O [Example 365, (S)-2-(4-((2,3-dihydrobenzofuran-6-yl)oxy)piperidin-1-yl)-3-ethyl-7-(hydroxymethyl)-6-methyl-6,7-dihydro-5H-pyrrolo[3,4-b]pyridin-5-one] as the compound, how does the EC50 read?
Answer: 0.026 µM

Question: How did the EC50 turn out when CCc1cc2c(nc1N1CCC(Oc3ccc4c(c3)COCC4)CC1)[C@H](CO)N(C)C2=O [Example 362, (R)-3-ethyl-7-(hydroxymethyl)-2-(4-(isochroman-7-yloxy)piperidin-1-yl)-6-methyl-6,7-dihydro-5H-pyrrolo[3,4-b]pyridin-5-one] was run?
Answer: 1.29 µM

Question: Cc1cncc(OC2CCN(c3nc4c(cc3C)C(=O)NC4)CC2)c1 [Example 66, 3-Methyl-2-(4-((5-methylpyridin-3-yl)oxy)piperidin-1-yl)-6,7-dihydro-5H-pyrrolo[3,4-b]pyridin-5-one] was tested. Which EC50 did it give?
Answer: 0.084 µM

Question: Which EC50 does the source give for COC(=O)CN1Cc2nc(N3CCC(Oc4ccc(OC)nc4)CC3)c(C)cc2C1=O [Example 260, methyl 2-(2-(4-((6-methoxypyridin-3-yl)oxy)piperidin-1-yl)-3-methyl-5-oxo-5,7-dihydro-6H-pyrrolo[3,4-b]pyridin-6-yl)acetate] here?
Answer: 0.141 µM

Question: With Cc1cc2c(nc1N1CCC(Oc3cnn(CC4CC4)c3)CC1)CNC2=O [Example 321A, 2-(4-((1-(cyclopropylmethyl)-1H-pyrazol-4-yl)oxy)piperidin-1-yl)-3-methyl-6,7-dihydro-5H-pyrrolo[3,4-b]pyridin-5-one] as the compound, how does the EC50 read?
Answer: 0.434 µM

Question: With COCCCN1Cc2nc(N3CCC(Oc4ccc(OC)nc4)CC3)c(C)cc2C1=O [Example 251, 6-(3-methoxypropyl)-2-(4-((6-methoxypyridin-3-yl)oxy)piperidin-1-yl)-3-methyl-6,7-dihydro-5H-pyrrolo[3,4-b]pyridin-5-one] as the compound, how does the EC50 read?
Answer: 0.198 µM

Question: For Cc1c(N2CCC(Oc3ccc4c(c3)COCC4)CC2)nc2c(c1C)C(=O)N(C)[C@H]2CO (single isomer, unassigned) [Example 337D], which EC50 is on record?
Answer: 0.613 µM

Question: With Cc1cc2c(nc1N1CC[C@@H](Oc3ccc4c(c3)COC4)[C@@H](F)C1)CN(CCO)C2=O [Example 255, 2-((3S,4R)-4-((1,3-dihydro-2-benzofuran-5-yl)oxy)-3-fluoropiperidin-1-yl)-6-(2-hydroxyethyl)-3-methyl-6,7-dihydro-5H-pyrrolo[3,4-b]pyridin-5-one] as the compound, how does the EC50 read?
Answer: 0.029 µM
